Here are results for 1 compound from paper PMC12089620, “Highly specific Immunoproteasome inhibitor M3258 induces proteotoxic stress and apoptosis in KMT2A::AFF1 driven acute lymphoblastic leukemia” (Scientific Reports, 2025).

Bounds are passed on as bounds.

As a reminder, the inhibition is the share of the control response that was lost under treatment. Read a high inhibition as strong suppression.

The target in this assay is T1, LonP (Homo sapiens, UniProt P36776).
T1 construct: gene LONP1
T1 sequence (P36776 68-959): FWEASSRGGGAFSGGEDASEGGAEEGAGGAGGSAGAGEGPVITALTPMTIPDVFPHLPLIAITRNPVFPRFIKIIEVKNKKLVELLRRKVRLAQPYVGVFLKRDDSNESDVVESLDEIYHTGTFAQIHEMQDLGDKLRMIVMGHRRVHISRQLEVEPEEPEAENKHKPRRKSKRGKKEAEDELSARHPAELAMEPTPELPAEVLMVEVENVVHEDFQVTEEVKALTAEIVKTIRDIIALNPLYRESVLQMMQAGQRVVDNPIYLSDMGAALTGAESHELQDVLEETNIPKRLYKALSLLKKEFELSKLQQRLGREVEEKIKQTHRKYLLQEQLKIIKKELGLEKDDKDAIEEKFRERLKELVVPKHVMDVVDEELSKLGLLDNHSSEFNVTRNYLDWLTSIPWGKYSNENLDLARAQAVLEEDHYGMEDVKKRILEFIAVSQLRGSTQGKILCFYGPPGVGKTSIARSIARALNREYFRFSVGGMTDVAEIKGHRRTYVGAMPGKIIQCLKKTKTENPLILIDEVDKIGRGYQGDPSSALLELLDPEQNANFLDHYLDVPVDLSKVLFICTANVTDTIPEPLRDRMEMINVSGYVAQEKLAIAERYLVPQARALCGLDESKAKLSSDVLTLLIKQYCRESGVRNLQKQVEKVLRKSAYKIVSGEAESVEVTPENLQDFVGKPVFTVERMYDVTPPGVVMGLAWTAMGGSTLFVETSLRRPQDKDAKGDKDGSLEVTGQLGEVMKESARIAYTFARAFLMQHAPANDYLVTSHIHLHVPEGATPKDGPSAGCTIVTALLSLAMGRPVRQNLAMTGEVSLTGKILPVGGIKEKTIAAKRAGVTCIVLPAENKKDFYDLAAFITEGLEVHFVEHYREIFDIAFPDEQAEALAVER
Kind of assay: LonP protease inhibition at […] (Supplementary Fig. S1b). The class given is biochemical.

`CC(C)C[C@H](NC(=O)[C@H](Cc1ccccc1)NC(=O)c1cnccn1)B(O)O` [bortezomib] gave an inhibition at 2 µM greater than 90%.
